Results as given in patent publication US8895504B2, “Amylin derivatives” (priority 2008, dated 2014).
*1 amine or outer side, *2 acyl side, *3 side chain or, on linkers, in order; H or OH if unused. Where a SMILES comes first, the peptide text is derived from it. Bridges are numbered along the chain shown (N, C = ends). The star is where a group is joined. C20 diacid = O=C(O)CCCCCCCCCCCCCCCCCCC(=O)*; γGlu = O=C(O)[C@H](CCC(=O)[*:2])N[*:1]; GABA = NCCCC(=O)O

Target: T1, Amylin 3(a) receptor (human calcitonin receptor (CTa) and RAMP-3) (Homo sapiens, UniProt O60896+P30988)
T1 construct: expressed in transfected cells; host or cells: BHK570 cells, stably transfected with a CRE-luciferase reporter
T1 sequence (O60896 24-148): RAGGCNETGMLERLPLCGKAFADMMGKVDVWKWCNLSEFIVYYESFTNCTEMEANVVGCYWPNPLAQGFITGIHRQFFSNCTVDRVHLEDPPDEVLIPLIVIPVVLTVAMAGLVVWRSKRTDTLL
T1 sequence (P30988 25-474): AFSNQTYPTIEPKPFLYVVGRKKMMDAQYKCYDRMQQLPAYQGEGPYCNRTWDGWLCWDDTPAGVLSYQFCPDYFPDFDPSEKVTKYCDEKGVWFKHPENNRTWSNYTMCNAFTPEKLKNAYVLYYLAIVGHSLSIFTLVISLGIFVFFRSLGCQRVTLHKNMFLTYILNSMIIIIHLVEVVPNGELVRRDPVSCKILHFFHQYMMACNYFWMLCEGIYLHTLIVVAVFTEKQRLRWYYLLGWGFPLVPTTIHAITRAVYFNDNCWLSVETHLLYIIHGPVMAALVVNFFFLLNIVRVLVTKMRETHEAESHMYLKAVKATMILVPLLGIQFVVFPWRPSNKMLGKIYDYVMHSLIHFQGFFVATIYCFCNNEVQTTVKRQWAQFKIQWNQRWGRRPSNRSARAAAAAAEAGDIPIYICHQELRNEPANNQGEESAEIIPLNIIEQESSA
Assay: Luciferase assay (III), BHK Amylin 3(a)//CRE-luc cells
Format: cell-based
Conditions: BHK cells with Amylin 3(a) receptor and CRE luciferase reporter, 4 hours incubation; read-out: Potency Luciferase
Excerpt: It has previously been published (Poyner D R et al 2002, Pharmacological Reviews 54(2) 233-246) that activation of Amylin receptors (coexpression of Calcitonin receptor and receptor activity modifying peptides RAMPs) by Amylin leads to an increase in the intracellular concentration of cAMP. Consequently, transcription is activated at promoters containing multiple copies of the cAMP response element (CRE). It is thus possible to measure Amylin activity by use of a CRE luciferase reporter gene introduced into BHK cells also expressing an Amylin receptor.
2. Construction of an Amylin 3(a)/CRE-luc Cell Line
A BHK570 cell line stably transfected with the human calcitonin receptor (CTa) and a CRE-responsive luciferase reportergene. The cell line was further transfected with RAMP-3, using standard methods. This turns the Calcitonin receptor into an Amylin 3(a) receptor. Methotrexate, Neomycin, and Hygromycin are selection markers for luciferase, the Calcitonin receptor, and RAMP-3, respectively.
3. Amylin Luciferase Assay
To perform activity assays, BHK Amylin 3(a)//CRE-luc cells were seeded in white 96 well culture plates at a density of about 20,000 cells/well. The cells were in 100 μl growth medium (DMEM with 10% FBS, 1% Pen/Strep, 1 mM Na-pyruvate, 250 nM Methotrexate, 500 μg/ml Neomycin, and 400 μg/ml Hygromycin). After incubation overnight at 37° C. and 5% CO2, the growth medium was replaced by 50 μl/well assay medium (DMEM (without phenol red), Glumamax™, 10% FBS, and 10 mM Hepes, pH 7,4). Further, 50 μl/well of standard or sample in assay buffer were added. After 4 hours incubation at 37° C. and 5% CO2, the assay medium with standard or sample were removed and replaced by 100 μl/well PBS. Further, 100 μl/well LucLite™ was added. The plates were sealed and incubated at room temperature for 30 minutes. Finally, luminescence was measured on a TopCounter (Packard) in SPC (single photon counting) mode.

EC50	SMILES
0.9 nM	CC[C@H](C)[C@H](NC(=O)[C@@H]1CCCN1C(=O)CNC(=O)[C@H](Cc1ccccc1)NC(=O)[C@H](CC(N)=O)NC(=O)[C@H](CC(N)=O)NC(=O)[C@H](CO)NC(=O)[C@H](CO)NC(=O)[C@H](Cc1c[nH]cn1)NC(=O)[C@H](Cc1c[nH]cn1)NC(=O)[C@H](CC(C)C)NC(=O)[C@H](Cc1ccccc1)NC(=O)[C@H](CCC(=O)O)NC(=O)[C@H](C)NC(=O)[C@H](CC(C)C)NC(=O)[C@H](CCCNC(=N)N)NC(=O)[C@H](CCC(N)=O)NC(=O)[C@@H](NC(=O)[C@H](C)NC(=O)[C@@H]1CSSC[C@H](NC(=O)[C@H](CCC(=O)O)NC(=O)[C@H](CCCNC(=N)N)NC(=O)[C@H](CCC(=O)O)NC(=O)[C@H](CCC(=O)O)NC(=O)CCCCCCCCCCCCCCCCCCC(=O)O)C(=O)N[C@@H](CC(N)=O)C(=O)N[C@@H]([C@@H](C)O)C(=O)N[C@@H](C)C(=O)N[C@@H]([C@@H](C)O)C(=O)N1)[C@@H](C)O)C(=O)N[C@@H](CC(C)C)C(=O)N1CCC[C@H]1C(=O)N1CCC[C@H]1C(=O)N[C@H](C(=O)N[C@@H](CCC(=O)O)C(=O)N[C@H](C(=O)NCC(=O)N[C@@H](CO)C(=O)N[C@@H](CC(N)=O)C(=O)N[C@H](C(=O)N[C@@H](Cc1ccc(O)cc1)C(N)=O)[C@@H](C)O)C(C)C)[C@@H](C)O [Example 1, N-alpha-(19-carboxynonadecanoyl)-Glu-Glu-Arg-[Glu1,Glu14,His17,Glu31]-pramlintide] ({C20 diacid}-EERECNTATCATQRLAEFLHHSSNNFGPILPPTEVGSNTY-NH2; disulfide 5-10)
0.09 nM	CC[C@H](C)[C@H](NC(=O)[C@@H]1CCCN1C(=O)CNC(=O)[C@H](Cc1ccccc1)NC(=O)[C@H](CC(N)=O)NC(=O)[C@H](CC(N)=O)NC(=O)[C@H](CO)NC(=O)[C@H](CO)NC(=O)[C@H](Cc1c[nH]cn1)NC(=O)[C@H](Cc1c[nH]cn1)NC(=O)[C@H](CC(C)C)NC(=O)[C@H](Cc1ccccc1)NC(=O)[C@H](CC(N)=O)NC(=O)[C@H](C)NC(=O)[C@H](CC(C)C)NC(=O)[C@H](CCCNC(=N)N)NC(=O)[C@H](CCC(N)=O)NC(=O)[C@@H](NC(=O)[C@H](C)NC(=O)[C@@H]1CSSC[C@H](NC(=O)[C@H](CCCNC(=N)N)NC(=O)[C@H](Cc2c[nH]cn2)NC(=O)[C@H](Cc2c[nH]cn2)NC(=O)CC[C@H](NC(=O)CCCCCCCCCCCCCCCCCCC(=O)O)C(=O)O)C(=O)N[C@@H](CC(N)=O)C(=O)N[C@@H]([C@@H](C)O)C(=O)N[C@@H](C)C(=O)N[C@@H]([C@@H](C)O)C(=O)N1)[C@@H](C)O)C(=O)N[C@@H](CC(C)C)C(=O)N1CCC[C@H]1C(=O)N1CCC[C@H]1C(=O)N[C@H](C(=O)N[C@@H](CC(N)=O)C(=O)N[C@H](C(=O)NCC(=O)N[C@@H](CO)C(=O)N[C@@H](CC(N)=O)C(=O)N[C@H](C(=O)N[C@@H](Cc1ccc(O)cc1)C(N)=O)[C@@H](C)O)C(C)C)[C@@H](C)O [Example 71, N-alpha-[(S)-4-Carboxy-4-(19-carboxynonadecanoylamino)butyryl]-His-His-[Arg1,His17]-pramlintide] ({C20 diacid-γGlu}-HHRCNTATCATQRLANFLHHSSNNFGPILPPTNVGSNTY-NH2; disulfide 4-9)
0.3 nM	CC[C@H](C)[C@H](NC(=O)[C@@H]1CCCN1C(=O)CNC(=O)[C@H](Cc1ccccc1)NC(=O)[C@H](CC(N)=O)NC(=O)[C@H](CC(N)=O)NC(=O)[C@H](CO)NC(=O)[C@H](CO)NC(=O)[C@H](Cc1c[nH]cn1)NC(=O)[C@H](CCCNC(=N)N)NC(=O)[C@H](CC(C)C)NC(=O)[C@H](Cc1ccccc1)NC(=O)[C@H](CC(N)=O)NC(=O)[C@H](C)NC(=O)[C@H](CC(C)C)NC(=O)[C@H](CCCNC(=N)N)NC(=O)[C@H](CCC(N)=O)NC(=O)[C@@H](NC(=O)[C@H](C)NC(=O)[C@@H]1CSSC[C@H](NC(=O)[C@H](CCC(=O)O)NC(=O)[C@H](CCC(=O)O)NC(=O)CC[C@H](NC(=O)CCCCCCCCCCCCCCCCCCC(=O)O)C(=O)O)C(=O)N[C@@H](CC(N)=O)C(=O)N[C@@H]([C@@H](C)O)C(=O)N[C@@H](C)C(=O)N[C@@H]([C@@H](C)O)C(=O)N1)[C@@H](C)O)C(=O)N[C@@H](CC(C)C)C(=O)N1CCC[C@H]1C(=O)N1CCC[C@H]1C(=O)N[C@H](C(=O)N[C@@H](CC(N)=O)C(=O)N[C@H](C(=O)NCC(=O)N[C@@H](CO)C(=O)N[C@@H](CC(N)=O)C(=O)N[C@H](C(=O)N[C@@H](Cc1ccc(O)cc1)C(N)=O)[C@@H](C)O)C(C)C)[C@@H](C)O [Example 49, N-alpha-[(S)-4-Carboxy-4-(19-carboxynonadecanoylamino)butyryl]-Glu-[Glu1,Arg17]-pramlintide] ({C20 diacid-γGlu}-EECNTATCATQRLANFLRHSSNNFGPILPPTNVGSNTY-NH2; disulfide 3-8)
0.1 nM	CC[C@H](C)[C@H](NC(=O)[C@@H]1CCCN1C(=O)CNC(=O)[C@H](Cc1ccccc1)NC(=O)[C@H](CC(N)=O)NC(=O)[C@H](CC(N)=O)NC(=O)[C@H](CO)NC(=O)[C@H](CO)NC(=O)[C@H](Cc1c[nH]cn1)NC(=O)[C@H](Cc1c[nH]cn1)NC(=O)[C@H](CC(C)C)NC(=O)[C@H](Cc1ccccc1)NC(=O)[C@H](CC(=O)O)NC(=O)[C@H](C)NC(=O)[C@H](CC(C)C)NC(=O)[C@H](CCCNC(=N)N)NC(=O)[C@H](CCC(N)=O)NC(=O)[C@@H](NC(=O)[C@H](C)NC(=O)[C@@H]1CSSC[C@H](NC(=O)CC[C@H](NC(=O)CCCCCCCCCCCCCCCCCCC(=O)O)C(=O)O)C(=O)N[C@@H](CC(N)=O)C(=O)N[C@@H]([C@@H](C)O)C(=O)N[C@@H](C)C(=O)N[C@@H]([C@@H](C)O)C(=O)N1)[C@@H](C)O)C(=O)N[C@@H](CC(C)C)C(=O)N1CCC[C@H]1C(=O)N1CCC[C@H]1C(=O)N[C@H](C(=O)N[C@@H](CC(N)=O)C(=O)N[C@H](C(=O)NCC(=O)N[C@@H](CO)C(=O)N[C@@H](CC(N)=O)C(=O)N[C@H](C(=O)N[C@@H](Cc1ccc(O)cc1)C(N)=O)[C@@H](C)O)C(C)C)[C@@H](C)O [Example 43, N-alpha-[(S)-4-Carboxy-4-(19-carboxynonadecanoylamino)butyryl]-[Asp14,His17]-pramlintide (2-37)] ({C20 diacid-γGlu}-CNTATCATQRLADFLHHSSNNFGPILPPTNVGSNTY-NH2; disulfide 1-6)
0.03 nM	CC[C@H](C)[C@H](NC(=O)[C@@H]1CCCN1C(=O)CNC(=O)[C@H](Cc1ccccc1)NC(=O)[C@H](CC(N)=O)NC(=O)[C@H](CC(N)=O)NC(=O)[C@H](CO)NC(=O)[C@H](CO)NC(=O)[C@H](Cc1c[nH]cn1)NC(=O)[C@H](CCCNC(=N)N)NC(=O)[C@H](CC(C)C)NC(=O)[C@H](Cc1ccccc1)NC(=O)[C@H](CC(N)=O)NC(=O)[C@H](C)NC(=O)[C@H](CC(C)C)NC(=O)[C@H](CCCNC(=N)N)NC(=O)[C@H](CCC(N)=O)NC(=O)[C@@H](NC(=O)[C@H](C)NC(=O)[C@@H]1CSSC[C@H](NC(=O)[C@H](CCCCN)NC(=O)[C@H](CCCNC(=N)N)NC(=O)CCCNC(=O)CCCCCCCCCCCCCCCCCCC(=O)O)C(=O)N[C@@H](CC(N)=O)C(=O)N[C@@H]([C@@H](C)O)C(=O)N[C@@H](C)C(=O)N[C@@H]([C@@H](C)O)C(=O)N1)[C@@H](C)O)C(=O)N[C@@H](CC(C)C)C(=O)N1CCC[C@H]1C(=O)N1CCC[C@H]1C(=O)N[C@H](C(=O)N[C@@H](CC(N)=O)C(=O)N[C@H](C(=O)NCC(=O)N[C@@H](CO)C(=O)N[C@@H](CC(N)=O)C(=O)N[C@H](C(=O)N[C@@H](Cc1ccc(O)cc1)C(N)=O)[C@@H](C)O)C(C)C)[C@@H](C)O [Example 25, N-alpha-[4-(19-Carboxynonadecanoylamino)butyryl]-Arg-[Arg17]-pramlintide] ({C20 diacid-GABA}-RKCNTATCATQRLANFLRHSSNNFGPILPPTNVGSNTY-NH2; disulfide 3-8)
0.2 nM	CC[C@H](C)[C@H](NC(=O)[C@@H]1CCCN1C(=O)CNC(=O)[C@H](Cc1ccccc1)NC(=O)[C@H](CC(N)=O)NC(=O)[C@H](CC(N)=O)NC(=O)[C@H](CO)NC(=O)[C@H](CO)NC(=O)[C@H](Cc1c[nH]cn1)NC(=O)[C@H](CCCNC(=N)N)NC(=O)[C@H](CC(C)C)NC(=O)[C@H](Cc1ccccc1)NC(=O)[C@H](CC(N)=O)NC(=O)[C@H](C)NC(=O)[C@H](CC(C)C)NC(=O)[C@H](CCCNC(=N)N)NC(=O)[C@H](CCC(N)=O)NC(=O)[C@@H](NC(=O)[C@H](C)NC(=O)[C@@H]1CSSC[C@H](NC(=O)CC[C@H](NC(=O)CCCCCCCCCCCCCCCCCCC(=O)O)C(=O)O)C(=O)N[C@@H](CC(N)=O)C(=O)N[C@@H]([C@@H](C)O)C(=O)N[C@@H](C)C(=O)N[C@@H]([C@@H](C)O)C(=O)N1)[C@@H](C)O)C(=O)N[C@@H](CC(C)C)C(=O)N1CCC[C@H]1C(=O)N1CCC[C@H]1C(=O)N[C@H](C(=O)N[C@@H](CC(N)=O)C(=O)N[C@H](C(=O)NCC(=O)N[C@@H](CO)C(=O)N[C@@H](CC(N)=O)C(=O)N[C@H](C(=O)N[C@@H](Cc1ccc(O)cc1)C(N)=O)[C@@H](C)O)C(C)C)[C@@H](C)O [Example 14, N-alpha-[(S)-4-Carboxy-4-(19-carboxynonadecanoylamino)butyryl]-[Arg17]-pramlintide (2-37)] ({C20 diacid-γGlu}-CNTATCATQRLANFLRHSSNNFGPILPPTNVGSNTY-NH2; disulfide 1-6)
